Data taken from patent US7402311B2, “Composition and method for treating non-bacterial cystitis” (priority 2003, dated 2008).

Legend:
[1] = Tests of bioavailability / transmural intestinal absorption of quercetin; type: in vivo; settings: quercetin alone
[2] = system: chronic interstitial cystitis syndromes; settings: patients taking quercetin alone; cited from earlier work
[3] = system: patients without positive bacterial cultures localized to the prostatic fluid; test: Example II: double blind study using 30 patients; type: in vivo
Protocol: A double blind study using 30 patients without positive bacterial cultures localized to the prostatic fluid are enrolled in a double blind study. Seventeen of the patients receive a composition comprised of quercetin in amount of 500 milligrams, bromelin in an amount of 10 milligrams, and papain in an amount of 10 milligrams as the active ingredients thereof. After a randomized study is completed, an additional fifteen patients are treated in an open label study with only the […]. […] The mean symptom score improves from 21.0 to 13.1 in the group receiving quercetin, but from 20.2 to 18.8 in the placebo group. This represents an improvement of 35%. In those patients which receive only the quercetin, without the papain and bromelin, with obtainable secretions, the white blood cell count in the decreases from 16.8 to 5.3, versus a decrease from 13.1 to 8.3 in the placebo patients.

bioavailability [1]: does not have a high bioavailability
transmural intestinal absorption [1]: relatively low
Structure (SMILES): O=c1c(O)c(-c2ccc(O)c(O)c2)oc2cc(O)cc(O)c12 [quercetin]
pain [2]: controlled
severe urinary symptoms [2]: least likely to improve
symptomatic response [2]: significant
improvement of mean symptom score ([3]; double blind study): 35%
mean symptom score, after treatment ([3]; double blind study, end value): 13.1
mean symptom score, before treatment ([3]; double blind study, start value): 21.0
white blood cell count, after treatment ([3]; patients with obtainable secretions, end value): 5.3
white blood cell count, before treatment ([3]; patients with obtainable secretions, start value): 16.8
